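Assay format: 96-well plates, 48-hour exposure. TGI is the concentration that stops growth completely.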
Experiments:
Test in all cases: inhibition of tumour cell growth, NCI panel, 48 h
MOLT-4 leukemia = tested on: MOLT-4 leukemia
SK-MEL-28 melanoma = tested on: SK-MEL-28 melanoma
OVCAR-8 ovarian = tested on: OVCAR-8 ovarian
SK-MEL-2 melanoma = tested on: SK-MEL-2 melanoma
HS 578T breast = tested on: HS 578T breast
T-47D breast = tested on: T-47D breast
K-562 leukemia = tested on: K-562 leukemia
SF-295 CNS = tested on: SF-295 CNS
NCI-H23 lung = tested on: NCI-H23 lung
PC-3 prostate = tested on: PC-3 prostate
SR leukemia = tested on: SR leukemia
IGROV1 ovarian = tested on: IGROV1 ovarian
UO-31 renal = tested on: UO-31 renal
HOP-92 NSCLC = tested on: HOP-92 NSCLC
HCT-116 colon = tested on: HCT-116 colon
HCT-15 colon = tested on: HCT-15 colon
SNB-75 CNS = tested on: SNB-75 CNS
RXF 393 renal = tested on: RXF 393 renal
SNB-19 CNS = tested on: SNB-19 CNS
DU-145 prostate = tested on: DU-145 prostate
RPMI-8226 leukemia = tested on: RPMI-8226 leukemia
M14 melanoma = tested on: M14 melanoma
SK-MEL-5 melanoma = tested on: SK-MEL-5 melanoma
A498 renal = tested on: A498 renal
MALME-3M melanoma = tested on: MALME-3M melanoma
EKVX NSCLC = tested on: EKVX NSCLC
786-0 renal = tested on: 786-0 renal
SF-268 CNS = tested on: SF-268 CNS
SW-620 colon = tested on: SW-620 colon
MDA-MB-435 = tested on: MDA-MB-435
HT29 colon = tested on: HT29 colon
CAKI-1 renal = tested on: CAKI-1 renal
HCC-2998 colon = tested on: HCC-2998 colon
UACC-62 melanoma = tested on: UACC-62 melanoma
MCF7 breast = tested on: MCF7 breast
U251 CNS = tested on: U251 CNS
MDA-MB-231 breast = tested on: MDA-MB-231 breast
NCI/ADR-RES ovarian = tested on: NCI/ADR-RES ovarian
COLO 205 colon = tested on: COLO 205 colon
KM12 colon = tested on: KM12 colon
A549 NSCLC = tested on: A549 NSCLC
BT-549 breast = tested on: BT-549 breast
OVCAR-4 ovarian = tested on: OVCAR-4 ovarian
NCI-H522 lung = tested on: NCI-H522 lung
NCI-H460 lung = tested on: NCI-H460 lung
OVCAR-5 ovarian = tested on: OVCAR-5 ovarian
MDA-N = tested on: MDA-N
LOX IMVI melanoma = tested on: LOX IMVI melanoma
ACHN renal = tested on: ACHN renal
SN12C renal = tested on: SN12C renal
SF-539 CNS = tested on: SF-539 CNS
UACC-257 melanoma = tested on: UACC-257 melanoma
NCI-H226 lung = tested on: NCI-H226 lung
OVCAR-3 ovarian = tested on: OVCAR-3 ovarian
TK-10 renal = tested on: TK-10 renal
HL-60(TB) leukemia = tested on: HL-60(TB) leukemia
SK-OV-3 ovarian = tested on: SK-OV-3 ovarian
HOP-62 NSCLC = tested on: HOP-62 NSCLC
CCRF-CEM leukemia = tested on: CCRF-CEM leukemia

## CCOC(=O)CSc1nc2ccccc2c(=O)n1N
MOLT-4 leukemia
  TGI: > 100 µM
SK-MEL-28 melanoma
  TGI: > 100 µM
OVCAR-8 ovarian
  TGI: > 100 µM
SK-MEL-2 melanoma
  TGI: > 100 µM
HS 578T breast
  TGI: > 100 µM
T-47D breast
  TGI: > 100 µM
K-562 leukemia
  TGI: > 100 µM
SF-295 CNS
  TGI: > 100 µM
NCI-H23 lung
  TGI: > 100 µM
PC-3 prostate
  TGI: > 100 µM
SR leukemia
  TGI: > 100 µM
IGROV1 ovarian
  TGI: > 100 µM
UO-31 renal
  TGI: > 100 µM
HOP-92 NSCLC
  TGI: > 100 µM
HCT-116 colon
  TGI: > 100 µM
HCT-15 colon
  TGI: > 100 µM
SNB-75 CNS
  TGI: > 100 µM
RXF 393 renal
  TGI: > 100 µM
SNB-19 CNS
  TGI: > 100 µM
DU-145 prostate
  TGI: > 100 µM
RPMI-8226 leukemia
  TGI: > 100 µM
M14 melanoma
  TGI: > 100 µM
SK-MEL-5 melanoma
  TGI: > 100 µM
A498 renal
  TGI: > 100 µM
MALME-3M melanoma
  TGI: > 100 µM
EKVX NSCLC
  TGI: > 100 µM
786-0 renal
  TGI: > 100 µM
SF-268 CNS
  TGI: > 100 µM
SW-620 colon
  TGI: > 100 µM
MDA-MB-435
  TGI: > 100 µM
HT29 colon
  TGI: > 100 µM
CAKI-1 renal
  TGI: > 100 µM
HCC-2998 colon
  TGI: > 100 µM
UACC-62 melanoma
  TGI: > 100 µM
MCF7 breast
  TGI: > 100 µM
U251 CNS
  TGI: > 100 µM
MDA-MB-231 breast
  TGI: > 100 µM
NCI/ADR-RES ovarian
  TGI: > 100 µM
COLO 205 colon
  TGI: > 100 µM
KM12 colon
  TGI: > 100 µM
A549 NSCLC
  TGI: > 100 µM
BT-549 breast
  TGI: > 100 µM
OVCAR-4 ovarian
  TGI: > 100 µM
NCI-H522 lung
  TGI: > 100 µM
NCI-H460 lung
  TGI: > 100 µM
OVCAR-5 ovarian
  TGI: > 100 µM
MDA-N
  TGI: > 100 µM
LOX IMVI melanoma
  TGI: > 100 µM
ACHN renal
  TGI: > 100 µM
SN12C renal
  TGI: > 100 µM
SF-539 CNS
  TGI: > 100 µM
UACC-257 melanoma
  TGI: > 100 µM
NCI-H226 lung
  TGI: > 100 µM
OVCAR-3 ovarian
  TGI: > 100 µM
TK-10 renal
  TGI: > 100 µM

## O=C(CCl)N1CCCCC1C1(c2cc3ccccc3[nH]2)OCCO1 (configuration not stated)
MOLT-4 leukemia
  TGI: 15.8 µM
SK-MEL-28 melanoma
  TGI: 35.6 µM
OVCAR-8 ovarian
  TGI: 17.6 µM
SK-MEL-2 melanoma
  TGI: 20.2 µM
HS 578T breast
  TGI: 13.9 µM
T-47D breast
  TGI: 26 µM
K-562 leukemia
  TGI: 15.9 µM
SF-295 CNS
  TGI: 11.5 µM
NCI-H23 lung
  TGI: 8.47 µM
PC-3 prostate
  TGI: 8.83 µM
HL-60(TB) leukemia
  TGI: > 100 µM
IGROV1 ovarian
  TGI: 0.558 µM
UO-31 renal
  TGI: 11.3 µM
HOP-92 NSCLC
  TGI: 24.7 µM
HCT-116 colon
  TGI: 10.2 µM
HCT-15 colon
  TGI: 33.9 µM
SNB-75 CNS
  TGI: 7.3 µM
RXF 393 renal
  TGI: 12.8 µM
SNB-19 CNS
  TGI: 31.5 µM
DU-145 prostate
  TGI: 9.89 µM
RPMI-8226 leukemia
  TGI: 13.7 µM
M14 melanoma
  TGI: 13.6 µM
SK-MEL-5 melanoma
  TGI: 22.6 µM
A498 renal
  TGI: 11.8 µM
MALME-3M melanoma
  TGI: 14.5 µM
SK-OV-3 ovarian
  TGI: 20.2 µM
EKVX NSCLC
  TGI: 5.74 µM
SF-268 CNS
  TGI: 15.4 µM
SW-620 colon
  TGI: 58.9 µM
MDA-MB-435
  TGI: 17.8 µM
HT29 colon
  TGI: 17.6 µM
CAKI-1 renal
  TGI: 1.86 µM
HCC-2998 colon
  TGI: 26.9 µM
UACC-62 melanoma
  TGI: 7.87 µM
MCF7 breast
  TGI: 8.97 µM
U251 CNS
  TGI: 12.7 µM
MDA-MB-231 breast
  TGI: 12.8 µM
NCI/ADR-RES ovarian
  TGI: 14.6 µM
COLO 205 colon
  TGI: 12.1 µM
KM12 colon
  TGI: 8.48 µM
A549 NSCLC
  TGI: 23.3 µM
BT-549 breast
  TGI: 6.83 µM
OVCAR-4 ovarian
  TGI: 9.28 µM
NCI-H522 lung
  TGI: 0.448 µM
NCI-H460 lung
  TGI: > 34.5 µM
OVCAR-5 ovarian
  TGI: 17.2 µM
HOP-62 NSCLC
  TGI: 20.6 µM
MDA-N
  TGI: 8.81 µM
LOX IMVI melanoma
  TGI: 0.141 µM
ACHN renal
  TGI: 13.9 µM
SN12C renal
  TGI: 9.85 µM
SF-539 CNS
  TGI: 4.51 µM
UACC-257 melanoma
  TGI: 13.1 µM
NCI-H226 lung
  TGI: 16.3 µM
OVCAR-3 ovarian
  TGI: 5.34 µM
TK-10 renal
  TGI: 10.1 µM

## CN(CCc1ccc(Br)cc1)CCN1CCCCC1
MOLT-4 leukemia
  TGI: > 100 µM
SK-MEL-28 melanoma
  TGI: 52.1 µM
OVCAR-8 ovarian
  TGI: > 100 µM
SK-MEL-2 melanoma
  TGI: 64.3 µM
HS 578T breast
  TGI: 52.6 µM
T-47D breast
  TGI: > 100 µM
K-562 leukemia
  TGI: 41.5 µM
SF-295 CNS
  TGI: 61.4 µM
NCI-H23 lung
  TGI: > 100 µM
PC-3 prostate
  TGI: > 100 µM
IGROV1 ovarian
  TGI: > 100 µM
UO-31 renal
  TGI: > 100 µM
HOP-92 NSCLC
  TGI: 82.8 µM
HCT-116 colon
  TGI: > 100 µM
HCT-15 colon
  TGI: > 100 µM
SNB-75 CNS
  TGI: 85.4 µM
RXF 393 renal
  TGI: > 100 µM
SNB-19 CNS
  TGI: > 100 µM
DU-145 prostate
  TGI: > 100 µM
RPMI-8226 leukemia
  TGI: > 100 µM
M14 melanoma
  TGI: 45.8 µM
SK-MEL-5 melanoma
  TGI: 28.2 µM
A498 renal
  TGI: 63.2 µM
MALME-3M melanoma
  TGI: 48.7 µM
SK-OV-3 ovarian
  TGI: > 100 µM
EKVX NSCLC
  TGI: > 100 µM
786-0 renal
  TGI: > 100 µM
SF-268 CNS
  TGI: > 100 µM
SW-620 colon
  TGI: > 100 µM
MDA-MB-435
  TGI: 95.3 µM
HT29 colon
  TGI: 38.8 µM
CCRF-CEM leukemia
  TGI: 36.6 µM
CAKI-1 renal
  TGI: > 100 µM
HCC-2998 colon
  TGI: > 100 µM
MCF7 breast
  TGI: 54.4 µM
U251 CNS
  TGI: > 100 µM
MDA-MB-231 breast
  TGI: > 100 µM
NCI/ADR-RES ovarian
  TGI: > 100 µM
COLO 205 colon
  TGI: 32.4 µM
KM12 colon
  TGI: 41.9 µM
A549 NSCLC
  TGI: > 100 µM
BT-549 breast
  TGI: 96.1 µM
OVCAR-4 ovarian
  TGI: > 100 µM
NCI-H522 lung
  TGI: 51.7 µM
NCI-H460 lung
  TGI: > 100 µM
OVCAR-5 ovarian
  TGI: > 100 µM
HOP-62 NSCLC
  TGI: > 100 µM
MDA-N
  TGI: 88 µM
LOX IMVI melanoma
  TGI: 94.2 µM
ACHN renal
  TGI: > 100 µM
SN12C renal
  TGI: > 100 µM
SF-539 CNS
  TGI: 64.8 µM
UACC-257 melanoma
  TGI: > 100 µM
NCI-H226 lung
  TGI: > 100 µM
OVCAR-3 ovarian
  TGI: > 100 µM
TK-10 renal
  TGI: > 100 µM

Reference: PubChem BioAssay (NCI)
